Test results as given in ChEMBL document CHEMBL1773071, “Development of tricyclic hydroxy-1H-pyrrolopyridine-trione containing HIV-1 integrase inhibitors” (Bioorg Med Chem Lett, 2011).

Tests used:
[1] = target: T1, Human immunodeficiency virus type 1 integrase (Human immunodeficiency virus 1, UniProt Q7ZJM1); assay: Inhibition of HIV1 recombinant integrase strand transfer activity expressed in Escherichia coli after 30 mins using [32P]-labeled oligonucleotide as a substrate by densitometric analysis
[2] = target: T1, Human immunodeficiency virus type 1 integrase; assay: Inhibition of HIV1 recombinant integrase 3'-processing activity expressed in Escherichia coli after 30 mins using [32P]-labeled oligonucleotide as a substrate by densitometric analysis
[3] = test system: Human immunodeficiency virus 1; assay: Resistant fold, ratio of EC50 for HIV1 harboring integrase Y143R mutant to EC50 for HIV1 harboring wild-type integrase; format: functional
[4] = target: T1, Human immunodeficiency virus type 1 integrase; assay: Inhibition of HIV1 recombinant integrase 3'-processing activity expressed in Escherichia coli after 60 mins using [32P]-labeled oligonucleotide as a substrate by densitometric analysis in presence of cofactor manganese
[5] = target: T1, Human immunodeficiency virus type 1 integrase; assay: Inhibition of HIV1 recombinant integrase 3'-processing activity expressed in Escherichia coli after 60 mins using [32P]-labeled oligonucleotide as a substrate by densitometric analysis in presence of cofactor magnesium
[6] = target: T1, Human immunodeficiency virus type 1 integrase; assay: Inhibition of HIV1 recombinant integrase strand transfer activity expressed in Escherichia coli after 60 mins using [32P]-labeled oligonucleotide as a substrate by densitometric analysis in presence of cofactor magnesium
HOS = assay: Cytotoxicity against human HOS cells assessed as ATP level after 48 hrs by luciferase reporter assay; format: cell-based
[7] = test system: Human immunodeficiency virus 1; assay: Antiviral activity against HIV1 harboring wild-type integrase infected in human HOS cells; format: functional, organism-based; conditions: Human immunodeficiency virus 1, HOS
[8] = test system: Human immunodeficiency virus 1; assay: Resistant fold, ratio of EC50 for HIV1 harboring integrase G140S/Q148H mutant to EC50 for HIV1 harboring wild-type integrase; format: functional
[9] = target: T1, Human immunodeficiency virus type 1 integrase; assay: Inhibition of HIV1 recombinant integrase strand transfer activity expressed in Escherichia coli after 60 mins using [32P]-labeled oligonucleotide as a substrate by densitometric analysis in presence of cofactor manganese
[10] = test system: Human immunodeficiency virus 1; assay: Resistant fold, ratio of EC50 for HIV1 harboring integrase N155H mutant to EC50 for HIV1 harboring wild-type integrase; format: functional

T1 sequence (Q7ZJM1 whole entry): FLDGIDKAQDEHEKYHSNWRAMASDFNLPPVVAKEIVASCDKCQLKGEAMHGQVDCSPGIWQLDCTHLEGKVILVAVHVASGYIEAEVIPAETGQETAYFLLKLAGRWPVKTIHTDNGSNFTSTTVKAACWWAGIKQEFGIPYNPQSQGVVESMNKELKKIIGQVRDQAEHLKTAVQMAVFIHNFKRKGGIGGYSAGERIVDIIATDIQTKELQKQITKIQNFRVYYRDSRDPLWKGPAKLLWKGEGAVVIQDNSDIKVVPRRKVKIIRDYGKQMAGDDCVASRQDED

SMILES	IC50 [1]	IC50 [2]	further results
O=C1c2c(c3n(c(=O)c2O)CCC3)C(=O)N1Cc1ccc(F)c(Cl)c1	10.9 µM	> 111 µM	–
O=C1c2c(c3n(c(=O)c2O)CCCC3)C(=O)N1Cc1ccc(F)c(Cl)c1	9.1 µM	> 111 µM	Ratio EC50 [3]: 4; IC50 [4]: 28 µM; IC50 [5]: > 111 µM; IC50 [6]: 9.1 µM; CC50 (HOS): 291 µM; EC50 [7]: 61 µM; Ratio EC50 [8]: 2; IC50 [9]: 1.2 µM; Ratio EC50 [10]: 3
O=C1c2c(c3n(c(=O)c2O)CCCCC3)C(=O)N1Cc1ccc(F)c(Cl)c1	6 µM	> 111 µM	–
O=C1c2c(c3n(c(=O)c2O)CCCCCC3)C(=O)N1Cc1ccc(F)c(Cl)c1	5.4 µM	> 111 µM	–
O=C1c2c(c3n(c(=O)c2O)CCCCC3)C(=O)N1Cc1ccc(F)cc1	10.4 µM	> 111 µM	–
O=C1c2c(c3n(c(=O)c2O)CCCCC3)C(=O)N1Cc1ccc(F)c(F)c1	6.01 µM	> 111 µM	–
O=C1c2c(c3n(c(=O)c2O)CCCCC3)C(=O)N1Cc1cccc(Cl)c1F	9.2 µM	> 111 µM	–
O=C1c2c(c3n(c(=O)c2O)CCCCC3)C(=O)N1Cc1ccccc1	> 111 µM	> 111 µM	–
O=C1c2c(c3n(c(=O)c2O)CCCCC3)C(=O)N1Cc1cccc2ccccc12	90.5 µM	> 111 µM	–
Cc1nnc(C(=O)NC(C)(C)c2nc(C(=O)NCc3ccc(F)cc3)c(O)c(=O)n2C)o1	–	–	EC50 [7]: 0.004 µM
O=C1c2ccc(O)c(O)c2C(=O)N1Cc1ccc(F)cc1	5.3 µM	–	–
O=C1c2ccc(O)c(O)c2C(=O)N1Cc1cccc(Cl)c1F	1.7 µM	–	–
O=C1c2ccc(O)c(O)c2C(=O)N1Cc1ccc(F)c(F)c1	0.14 µM	–	–
